Assay results reported in US8206732B2, “Pyrithione biocides enhanced by silver, copper, or zinc ions” (Arch Chemicals, Inc., priority 1999, dated 2012).
Several values for one entry are separate records, joined by “and”; a condition that tells them apart may be missing. Identical values can stand only once.

Legend:
[1] = test system: Staphylococcus aureus ATCC 27217; assay: Checkerboard MIC test, pyrithiones with zinc salts; assay type: cell-based; settings: pyrithione alone or pyrithione concentration in the inhibitory mixture; TSB, 28 C, 3 days
[2] = test system: P. aeruginosa 9027 biofilm; assay: Viable biofilm cells on discs in metalworking fluid (Example 5); assay type: cell-based, Pseudomonas aeruginosa; settings: 100 PPM NaPT; for viable biofilm cells: 5% soluble oil MWF, 2.5 PPM Zn(II) or both, 4 days
[3] = test system: Staphylococcus aureus ATCC 27217; assay: Zone of inhibition test (paper disc on TSA); assay type: cell-based; settings: 6.5 mm discs; 0.135% pyrithione, 0.1% ZnCl2 or both; 28° C., 24 hr
[4] = test system: mixed bacteria (Pseudomonas aeruginosa 9027, Escherichia coli 8739, Pseudomonas fluorescens 12201, Pseudomonas rubescens 12202, Pseudomonas putida); assay: Various mixtures of NaPT and Zn(II) against bacteria in 5% metalworking fluid (Example 8, Table 10a); assay type: cell-based, Pseudomonas spp.
[5] = test system: E. coli 8739 biofilm; assay: Viable biofilm cells on discs in metalworking fluid (Example 5); assay type: cell-based, Escherichia coli; settings: polycarbonate disc, 100 PPM NaPT, 10 PPM Zn (II) or both, 4 days after treatment
[6] = test system: Escherichia coli 10536; assay: Checkerboard MIC test, pyrithiones with silver salts; assay type: cell-based; settings: NaPT alone or in the inhibitory mixture with silver salt; TSB pH 7.3, 35° C., 1 to 2 days
[7] = test system: Fusarium sp. and Cephalosporium sp.; assay: Various mixtures of NaPT and Zn(II) against fungi in 5% metalworking fluid (Example 8, Table 10b); assay type: cell-based
[8] = test system: E. coli 8739 free-living cells; assay: Viable free-living cells in bulk metalworking fluid (Example 5); assay type: cell-based, Escherichia coli; settings: 100 PPM NaPT, 10 PPM Zn (II) or both, 4 days after treatment
[9] = semi-synthetic, NaPT 100 PPM, Day 1
[10] = semi-synthetic, NaPT 100 PPM, Day 1, tube of the Day 1/Day 4 series
[11] = semi-synthetic, NaPT 100 PPM, Day 2
[12] = semi-synthetic, NaPT 100 PPM, Day 4
[13] = semi-synthetic, NaPT 100 PPM, Day 7
[14] = semi-synthetic, NaPT 300 PPM, Day 1
[15] = semi-synthetic, NaPT 300 PPM, Day 2
[16] = semi-synthetic, NaPT 300 PPM, Day 7
[17] = semi-synthetic, NaPT 500 PPM, Day 2
[18] = semi-synthetic, NaPT 500 PPM, Day 7
[19] = soluble oil, NaPT 100 PPM, Day 1
[20] = soluble oil, NaPT 100 PPM, Day 1, tube of the Day 1/Day 4 series
[21] = soluble oil, NaPT 100 PPM, Day 2
[22] = soluble oil, NaPT 100 PPM, Day 4
[23] = soluble oil, NaPT 100 PPM, Day 7
[24] = soluble oil, NaPT 300 PPM, Day 1
[25] = soluble oil, NaPT 300 PPM, Day 2
[26] = soluble oil, NaPT 300 PPM, Day 7
[27] = soluble oil, NaPT 500 PPM, Day 2
[28] = soluble oil, NaPT 500 PPM, Day 7
[29] = synthetic, NaPT 100 PPM, Day 1, tube of the Day 1/Day 4 series

Question: What does the source list for `[Na+].[O-][n+]1ccccc1[S-]` [NaPT, sodium pyrithione]?
Answer: MIC Pyrithione [1]: 4 ppm; viable biofilm microorganisms ([2]; 5% solub. oil MWF, polycarbonate disc, 10 PPM Zn (II) or both, 4 days after treatment): 2.0 × 10^5 cells/cm^2 and 2.6 × 10^4 cells/cm^2; viable biofilm cells ([2]; Polycarbonate surface): 2.8 × 10^4 cells/cm^2; viable biofilm cells ([2]; Rubber surface): 5.3 × 10^2 cells/cm^2; viable biofilm cells ([2]; Steel surface): 1.1 × 10^5 cells/cm^2; Zone of Inhibition [3]: 31 mm; Bacteria/ml [4, 9]: 1.8 × 10^5 Bacteria/ml; Bacteria/ml [4, 10]: 1.7 × 10^4 Bacteria/ml; Bacteria/ml [4, 11]: 1.9 × 10^5 Bacteria/ml; Bacteria/ml [4, 12]: 1.2 × 10^4 Bacteria/ml; Bacteria/ml [4, 13]: 510 Bacteria/ml; Bacteria/ml [4, 14]: 1.2 × 10^5 Bacteria/ml; Bacteria/ml [4, 15]: 0 Bacteria/ml; Bacteria/ml [4, 16]: 0 Bacteria/ml; Bacteria/ml [4, 17]: 0 Bacteria/ml; Bacteria/ml [4, 18]: 0 Bacteria/ml; Bacteria/ml [4, 19]: 2.4 × 10^5 Bacteria/ml; Bacteria/ml [4, 20]: 5.9 × 10^6 Bacteria/ml; Bacteria/ml [4, 21]: 6.0 × 10^3 Bacteria/ml; Bacteria/ml [4, 22]: 1.5 × 10^6 Bacteria/ml; Bacteria/ml [4, 23]: 2.0 × 10^4 Bacteria/ml; Bacteria/ml [4, 24]: 7.1 × 10^4 Bacteria/ml; Bacteria/ml [4, 25]: 9.0 × 10^3 Bacteria/ml; Bacteria/ml [4, 26]: 0 Bacteria/ml; Bacteria/ml [4, 27]: 450 Bacteria/ml; Bacteria/ml [4, 28]: 0 Bacteria/ml; Bacteria/ml ([4]; synthetic, NaPT 100 PPM, Day 1): 2.9 × 10^6 Bacteria/ml; Bacteria/ml [4, 29]: 2.1 × 10^6 Bacteria/ml; Bacteria/ml ([4]; synthetic, NaPT 100 PPM, Day 2): 1.7 × 10^5 Bacteria/ml; Bacteria/ml ([4]; synthetic, NaPT 100 PPM, Day 4): 2.0 × 10^5 Bacteria/ml; Bacteria/ml ([4]; synthetic, NaPT 100 PPM, Day 7): 1.5 × 10^4 Bacteria/ml; Bacteria/ml ([4]; synthetic, NaPT 300 PPM, Day 1): 5.0 × 10^4 Bacteria/ml; Bacteria/ml ([4]; synthetic, NaPT 300 PPM, Day 2): 4.0 × 10^3 Bacteria/ml; Bacteria/ml ([4]; synthetic, NaPT 300 PPM, Day 7): 0 Bacteria/ml; Bacteria/ml ([4]; synthetic, NaPT 500 PPM, Day 1): 1.2 × 10^5 Bacteria/ml; Bacteria/ml ([4]; synthetic, NaPT 500 PPM, Day 2): 1.0 × 10^3 Bacteria/ml; Bacteria/ml ([4]; synthetic, NaPT 500 PPM, Day 7): 50 Bacteria/ml; viable biofilm microorganisms ([5]; 5% solub. oil MWF): 1.6 × 10^5 cells/cm^2; viable biofilm microorganisms ([5]; 10% TSB): 1.4 × 10^6 cells/cm^2; MIC NaPT [6]: 16 ppm; Fungi/ml [7, 9]: 1.1 × 10^4 Fungi/ml; Fungi/ml [7, 10]: 2.0 × 10^4 Fungi/ml; Fungi/ml [7, 11]: 1.3 × 10^3 Fungi/ml; Fungi/ml [7, 12]: 1.0 × 10^4 Fungi/ml; Fungi/ml [7, 13]: 0 Fungi/ml; Fungi/ml [7, 14]: 3.0 × 10^3 Fungi/ml; Fungi/ml [7, 15]: 570 Fungi/ml; Fungi/ml [7, 16]: 0 Fungi/ml; Fungi/ml ([7]; semi-synthetic, NaPT 500 PPM, Day 1): 9.0 × 10^3 Fungi/ml; Fungi/ml [7, 17]: 300 Fungi/ml; Fungi/ml [7, 18]: 0 Fungi/ml; Fungi/ml [7, 19]: 3.2 × 10^4 Fungi/ml; Fungi/ml [7, 20]: 3.6 × 10^4 Fungi/ml; Fungi/ml [7, 21]: 2.9 × 10^4 Fungi/ml; Fungi/ml [7, 22]: 2.9 × 10^4 Fungi/ml; Fungi/ml [7, 23]: 1.5 × 10^4 Fungi/ml; Fungi/ml [7, 24]: 1.7 × 10^4 Fungi/ml; Fungi/ml [7, 25]: 1.0 × 10^4 Fungi/ml; Fungi/ml [7, 26]: 560 Fungi/ml; Fungi/ml ([7]; soluble oil, NaPT 500 PPM, Day 1): 1.9 × 10^4 Fungi/ml; Fungi/ml [7, 27]: 2.8 × 10^4 Fungi/ml; Fungi/ml [7, 28]: 610 Fungi/ml; Fungi/ml ([7]; synthetic, NaPT 100 PPM, Day 1): 3.0 × 10^4 Fungi/ml; Fungi/ml [7, 29]: 9.0 × 10^3 Fungi/ml; Fungi/ml ([7]; synthetic, NaPT 100 PPM, Day 2): 2.0 × 10^3 Fungi/ml; Fungi/ml ([7]; synthetic, NaPT 100 PPM, Day 4): 5.0 × 10^3 Fungi/ml; Fungi/ml ([7]; synthetic, NaPT 100 PPM, Day 7): 2.0 × 10^3 Fungi/ml; Fungi/ml ([7]; synthetic, NaPT 300 PPM, Day 1): 2.9 × 10^4 Fungi/ml; Fungi/ml ([7]; synthetic, NaPT 300 PPM, Day 2): 2.1 × 10^4 Fungi/ml; Fungi/ml ([7]; synthetic, NaPT 300 PPM, Day 7): 1.2 × 10^4 Fungi/ml; Fungi/ml ([7]; synthetic, NaPT 500 PPM, Day 1): 2.7 × 10^4 Fungi/ml; Fungi/ml ([7]; synthetic, NaPT 500 PPM, Day 2): 4.0 × 10^3 Fungi/ml; Fungi/ml ([7]; synthetic, NaPT 500 PPM, Day 7): 3.0 × 10^3 Fungi/ml; viable free-living microorganisms ([8]; 5% solub. oil MWF): 5.3 × 10^7 cells/ml; viable free-living microorganisms ([8]; 10% TSB): 9.1 × 10^8 cells/ml
